Where two headings read alike, the source gives them in different places.
Tested on: transgenic fli-1: enhanced GFP zebrafish embryos
Assay: Zebrafish embryo assay: antiangiogenic effects
Type: in vivo, zebrafish (Danio rerio)
Conditions: Danio rerio, zebrafish embryos

CC(=O)Nc1ccc(NC(=O)/C(C)=C\CC23OC(C)(C)C4CC(C=C5C(=O)c6c(O)c7c(c(CC8OC8(C)C)c6OC542)OC(C)(CCC2OC2(C)C)C=C7)C3=O)cc1 (stereo not shown) [Compound 36, (32,33),(37,38)-Diepoxy-N-(4-acetamidophenyl) gambogamide]
inhibition in vivo at 1 µM (read-out: antiangiogenic rates): 25 to 50% | inhibition in vivo at 1 µM (vs vehicle (0.05% DMSO), read-out: Anti-angiogenic phenotype): 25 to 50% | inhibition in vivo at 2.5 µM (2.5 μM, vs vehicle (0.05% DMSO), read-out: Anti-angiogenic phenotype): 50 to 75% | inhibition in vivo at 10 µM (10 μM, vs vehicle (0.05% DMSO), read-out: Anti-angiogenic phenotype): > 75%

— paper PMC6268492, “Synthesis and Antiangiogenic Activity of Novel Gambogic Acid Derivatives” (Molecules, 2012)
